Each block holds one compound with its values, some of them ahead of it. Calls of active or inactive are those of the source. No cut-off for these calls is given here.
Columns and labels:
RS4-11 = test: Cytotoxicity against human RS4-11 cells assessed as reduction in cell viability measured after 3 days by CellTiter-Glo assay; format: functional, cell-based; conditions: RS4-11, 72 h
IMR-90 = test: Cytotoxicity against human IMR-90 cells assessed as effect on cell viability at 10^-10 to 10^-5 M measured after 3 days by CellTiter-Glo assay; format: cell-based; conditions: imr-90, 72 h, dose 0.0001-10 µM, time 3 day
HaCaT = test: Cytotoxicity against human HaCaT cells assessed as effect on cell viability at 10^-10 to 10^-5 M measured after 3 days by CellTiter-Glo assay; format: cell-based; conditions: 72 h, dose 0.0001-10 µM, time 3 day
[1] = biological target: Protein cereblon/Tyrosine-protein kinase JAK1 (Homo sapiens, UniProt P23458+Q96SW2); test: Protac activity at CRBN/JAK1 in human RS4-11 cells assessed as degradation of JAK1 measured after 24 hrs by immunoblotting analysis; format: cell-based
Sequence of Protein cereblon/Tyrosine-protein kinase JAK1 (P23458 whole entry): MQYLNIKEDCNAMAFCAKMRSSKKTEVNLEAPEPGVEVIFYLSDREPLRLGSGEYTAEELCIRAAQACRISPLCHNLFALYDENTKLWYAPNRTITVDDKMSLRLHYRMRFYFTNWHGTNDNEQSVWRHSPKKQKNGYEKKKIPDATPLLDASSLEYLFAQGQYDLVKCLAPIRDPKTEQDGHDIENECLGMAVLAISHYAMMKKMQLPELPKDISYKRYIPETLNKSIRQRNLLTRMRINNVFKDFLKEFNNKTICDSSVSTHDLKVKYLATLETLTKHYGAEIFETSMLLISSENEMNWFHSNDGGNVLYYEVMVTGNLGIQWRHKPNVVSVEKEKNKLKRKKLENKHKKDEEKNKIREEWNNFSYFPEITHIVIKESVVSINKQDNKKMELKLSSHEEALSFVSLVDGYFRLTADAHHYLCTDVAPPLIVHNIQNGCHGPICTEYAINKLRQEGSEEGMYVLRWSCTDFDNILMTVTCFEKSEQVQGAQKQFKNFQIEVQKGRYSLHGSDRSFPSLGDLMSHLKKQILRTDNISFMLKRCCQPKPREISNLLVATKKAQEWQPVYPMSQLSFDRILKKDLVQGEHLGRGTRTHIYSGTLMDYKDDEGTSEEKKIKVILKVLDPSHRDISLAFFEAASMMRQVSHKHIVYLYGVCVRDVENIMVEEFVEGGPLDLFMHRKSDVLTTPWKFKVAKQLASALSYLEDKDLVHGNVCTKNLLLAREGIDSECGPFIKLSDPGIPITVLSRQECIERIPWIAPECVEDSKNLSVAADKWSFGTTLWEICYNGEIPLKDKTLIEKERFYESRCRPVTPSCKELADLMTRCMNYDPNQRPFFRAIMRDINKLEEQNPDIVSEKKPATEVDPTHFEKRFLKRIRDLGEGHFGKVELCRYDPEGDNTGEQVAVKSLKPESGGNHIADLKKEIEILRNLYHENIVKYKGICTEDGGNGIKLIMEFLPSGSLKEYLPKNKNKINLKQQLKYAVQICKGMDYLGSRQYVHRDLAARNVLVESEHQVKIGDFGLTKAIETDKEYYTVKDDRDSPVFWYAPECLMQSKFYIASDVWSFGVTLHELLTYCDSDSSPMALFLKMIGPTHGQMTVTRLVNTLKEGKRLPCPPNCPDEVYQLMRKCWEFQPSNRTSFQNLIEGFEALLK
Sequence of Protein cereblon/Tyrosine-protein kinase JAK1 (Q96SW2 whole entry): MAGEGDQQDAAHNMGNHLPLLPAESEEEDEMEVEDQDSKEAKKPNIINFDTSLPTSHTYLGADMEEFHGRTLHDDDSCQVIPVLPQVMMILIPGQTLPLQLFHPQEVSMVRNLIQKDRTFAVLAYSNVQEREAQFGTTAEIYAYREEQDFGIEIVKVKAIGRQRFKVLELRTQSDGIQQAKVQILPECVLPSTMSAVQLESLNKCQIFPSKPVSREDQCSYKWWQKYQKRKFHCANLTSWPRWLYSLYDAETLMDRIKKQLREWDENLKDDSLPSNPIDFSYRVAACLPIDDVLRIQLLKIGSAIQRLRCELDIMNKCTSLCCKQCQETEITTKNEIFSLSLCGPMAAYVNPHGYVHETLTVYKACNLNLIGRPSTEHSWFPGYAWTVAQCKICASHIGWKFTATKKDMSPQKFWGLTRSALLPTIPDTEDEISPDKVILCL

[2] = test system: Protein cereblon/Tyrosine-protein kinase JAK2 (Homo sapiens), O60674+Q96SW2 [UNDEFINED MUTATION]; test: Protac activity at CRBN/JAK2 V617 mutant in human HEL cells assessed as decrease in JAK2 V617 mutant protein level at < 60 nM measured after 24 hrs by immunoblotting analysis; format: cell-based; conditions: dose nM <60, time 24.0 hrs
Sequence of Protein cereblon/Tyrosine-protein kinase JAK2 (Homo sapiens), O60674+Q96SW2 [UNDEFINED MUTATION] (O60674 whole entry, looked up, change not shown): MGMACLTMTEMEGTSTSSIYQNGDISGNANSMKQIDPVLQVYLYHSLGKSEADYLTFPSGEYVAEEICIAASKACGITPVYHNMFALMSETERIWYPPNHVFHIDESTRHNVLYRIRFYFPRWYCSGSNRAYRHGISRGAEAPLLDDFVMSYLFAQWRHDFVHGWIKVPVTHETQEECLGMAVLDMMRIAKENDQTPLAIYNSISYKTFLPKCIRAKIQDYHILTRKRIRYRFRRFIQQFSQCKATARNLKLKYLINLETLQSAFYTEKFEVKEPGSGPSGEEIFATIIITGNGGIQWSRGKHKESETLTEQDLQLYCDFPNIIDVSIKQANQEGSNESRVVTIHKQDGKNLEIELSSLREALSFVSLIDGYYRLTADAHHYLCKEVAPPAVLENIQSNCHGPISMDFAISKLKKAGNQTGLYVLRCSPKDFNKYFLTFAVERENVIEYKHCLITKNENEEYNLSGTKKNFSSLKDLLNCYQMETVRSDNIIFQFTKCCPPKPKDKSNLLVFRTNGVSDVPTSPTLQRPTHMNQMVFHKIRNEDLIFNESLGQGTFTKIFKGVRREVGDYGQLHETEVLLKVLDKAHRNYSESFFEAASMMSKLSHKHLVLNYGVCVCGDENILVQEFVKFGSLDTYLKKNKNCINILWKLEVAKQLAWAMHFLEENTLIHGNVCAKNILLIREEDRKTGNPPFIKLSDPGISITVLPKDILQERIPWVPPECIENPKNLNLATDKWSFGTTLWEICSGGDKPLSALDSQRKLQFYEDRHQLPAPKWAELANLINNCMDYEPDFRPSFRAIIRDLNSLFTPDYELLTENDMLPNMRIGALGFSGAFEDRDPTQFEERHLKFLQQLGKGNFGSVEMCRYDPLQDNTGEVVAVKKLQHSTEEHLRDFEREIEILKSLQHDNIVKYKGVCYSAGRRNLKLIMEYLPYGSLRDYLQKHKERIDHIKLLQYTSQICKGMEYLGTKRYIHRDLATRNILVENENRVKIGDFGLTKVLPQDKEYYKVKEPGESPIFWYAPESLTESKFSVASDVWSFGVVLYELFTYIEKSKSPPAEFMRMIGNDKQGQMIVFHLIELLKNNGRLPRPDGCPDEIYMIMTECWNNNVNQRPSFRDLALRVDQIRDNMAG
Sequence of Protein cereblon/Tyrosine-protein kinase JAK2 (Homo sapiens), O60674+Q96SW2 [UNDEFINED MUTATION] (Q96SW2 whole entry, looked up, change not shown): as the sequence (Q96SW2 whole entry) above

Compound: O=C1CCC(N2Cc3ccc(OCCCCCCC(=O)N4CCC(n5cc(-c6cnc7cccc(-c8cc(F)c(CN9CCOCC9)c(F)c8)c7n6)cn5)CC4)cc3C2=O)C(=O)N1 (configuration not stated)
IC50 (RS4-11): 3.8 nM

Compound: CS(=O)(=O)c1ccc(-c2cccc3nc(Nc4ccc(N5CCN(C(=O)CCCCCCOc6ccc7c(c6)C(=O)N(C6CCC(=O)NC6=O)C7)CC5)cc4)nn23)cc1 (configuration not stated)
IC50 (RS4-11): 5.4 nM

Compound: O=C1CCC(N2C(=O)c3ccc(NCCCCCCCC(=O)N4CCC(n5cc(-c6cnc7cccc(-c8cc(F)c(CN9CCOCC9)c(F)c8)c7n6)cn5)CC4)cc3C2=O)C(=O)N1 (configuration not stated)
IC50 (RS4-11): 54.4 nM

Compound: O=C1CCC(N2Cc3cc(OCCCCCC(=O)N4CCC(n5cc(-c6cnc7cccc(-c8cc(F)c(CN9CCOCC9)c(F)c8)c7n6)cn5)CC4)ccc3C2=O)C(=O)N1 (configuration not stated)
IC50 (RS4-11): 3.6 nM

Compound: O=C1CCC(N2C(=O)c3ccc(NCCCCC(=O)N4CCC(n5cc(-c6cnc7cccc(-c8cc(F)c(CN9CCOCC9)c(F)c8)c7n6)cn5)CC4)cc3C2=O)C(=O)N1 (configuration not stated)
IC50 (RS4-11): 13.8 nM

DC50 [1]: < 5 nM
Compound: O=C1CCC(N2C(=O)c3ccc(NCCCCCC(=O)N4CCC(n5cc(-c6cnc7cccc(-c8cc(F)c(CN9CCOCC9)c(F)c8)c7n6)cn5)CC4)cc3C2=O)C(=O)N1 (configuration not stated)
IC50 (RS4-11): 2.03 nM | Activity (IMR-90): Non-Toxic | Activity (HaCaT): Non-Toxic

Compound: CS(=O)(=O)c1ccc(-c2cccc3nc(Nc4ccc(N5CCN(C(=O)CCCCCOc6ccc7c(c6)CN(C6CCC(=O)NC6=O)C7=O)CC5)cc4)nn23)cc1 (configuration not stated)
IC50 (RS4-11): 32.8 nM

Compound: CS(=O)(=O)c1ccc(-c2cccc3nc(Nc4ccc(N5CCN(CC(=O)NCCCCCCCCNc6ccc7c(c6)C(=O)N(C6CCC(=O)NC6=O)C7=O)CC5)cc4)nn23)cc1 (configuration not stated)
IC50 (RS4-11): 8.45 nM | Activity (IMR-90): Non-Toxic | Activity (HaCaT): Non-Toxic | DC50 [1]: < 35 nM | Activity [2]: Active

Compound: CS(=O)(=O)c1ccc(-c2cccc3nc(Nc4ccc(N5CCN(CC(=O)NCCCCCCCNc6ccc7c(c6)C(=O)N(C6CCC(=O)NC6=O)C7=O)CC5)cc4)nn23)cc1 (configuration not stated)
IC50 (RS4-11): 63.5 nM

Compound: CS(=O)(=O)c1ccc(-c2cccc3nc(Nc4ccc(N5CCN(C(=O)CCCCCNc6ccc7c(c6)C(=O)N(C6CCC(=O)NC6=O)C7=O)CC5)cc4)nn23)cc1 (configuration not stated)
IC50 (RS4-11): 7.3 nM

From ChEMBL document CHEMBL4680361, “Degradation of Janus Kinase for Potential Application in Immune Response Therapeutics” (ACS Med Chem Lett, 2021)
